# Experimental data reported in ChEMBL document CHEMBL2364335, “Structure-activity relationship data for chemical series of achiral agonists of the ghrelin (growth hormone secretagogue) receptor (Supplementary Bioactivity Data for publication CHEMBL1140573)”.
# Molecular target: Growth hormone secretagogue receptor type 1 (Homo sapiens, UniProt Q92847)
# Experiment: SUPPLEMENTARY: Agonist activity at GSHR by FLIPR assay. Same assay as CHEMBL941945
# Format: functional
# Sequence of Growth hormone secretagogue receptor type 1 (Q92847 whole entry): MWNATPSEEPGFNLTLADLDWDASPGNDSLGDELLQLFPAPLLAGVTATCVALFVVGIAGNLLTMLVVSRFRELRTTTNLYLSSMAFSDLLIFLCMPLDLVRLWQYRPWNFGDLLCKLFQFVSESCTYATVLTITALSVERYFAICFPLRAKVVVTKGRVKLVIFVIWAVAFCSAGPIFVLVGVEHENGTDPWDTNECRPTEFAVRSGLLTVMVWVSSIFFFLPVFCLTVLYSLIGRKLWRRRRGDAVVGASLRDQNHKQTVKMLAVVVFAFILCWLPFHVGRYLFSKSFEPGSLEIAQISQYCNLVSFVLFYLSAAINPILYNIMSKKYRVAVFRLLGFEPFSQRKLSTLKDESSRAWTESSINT
row,EC50 [nM],Structure (SMILES)
1,20,COc1cc(-c2ccco2)ccc1S(=O)(=O)Nc1cccc(N2C[C@@H](C)N[C@@H](C)C2)c1
2,12.6,COc1ccc(N2C[C@@H](C)N[C@@H](C)C2)cc1NS(=O)(=O)c1ccc(-c2nccs2)cc1
3,1.58,COc1ccc(N2C[C@@H](C)N[C@@H](C)C2)cc1NS(=O)(=O)c1ccc2c(Cl)cccc2c1
4,3.98,COc1ccc(N2C[C@@H](C)N[C@@H](C)C2)cc1NS(=O)(=O)c1ccc(-c2ccc(C)s2)c(F)c1
5,63.1,COc1ncc(N2C[C@@H](C)N[C@@H](C)C2)cc1NS(=O)(=O)c1ccc(-c2ccc(C)o2)c(F)c1
6,50.1,COc1ccc(N2C[C@@H](C)N[C@@H](C)C2)cc1NS(=O)(=O)c1ccc(Cl)c2ccccc12
7,5.01,Cc1ccc(-c2ccc(S(=O)(=O)Nc3cc(N4C[C@@H](C)N[C@@H](C)C4)ccc3O)cc2)o1
8,25.1,C[C@@H]1CN(c2ccc(O)c(NS(=O)(=O)c3ccc(-c4ccccn4)s3)c2)C[C@H](C)N1
9,2.51,COc1ccc(NS(=O)(=O)c2ccc(-c3cccs3)cc2F)cc1N1C[C@@H](C)N[C@@H](C)C1
10,6.31,C[C@@H]1CN(c2ccc(O)c(NS(=O)(=O)c3ccc(-c4ccccc4F)s3)c2)C[C@H](C)N1
11,12.6,COc1ccc(N2C[C@@H](C)N[C@@H](C)C2)cc1NS(=O)(=O)c1ccc(-c2ncccn2)cc1
12,15.8,C[C@@H]1CN(c2ccc(F)c(NS(=O)(=O)c3ccc(-c4ccoc4)c(F)c3)c2)C[C@H](C)N1
